Assay results from PMC6822764, “MitoToxy assay: A novel cell-based method for the assessment of metabolic toxicity in a multiwell plate format using a lactate FRET nanosensor, Laconic” (PLoS ONE, 2019).
Several values for one entry are separate records, joined by “and”; a condition that tells them apart may be missing. Identical values can stand only once. Entries after “also recorded” stand apart in the source; their conditions may differ. Like-named read-outs stand apart in the source and are kept apart here.

Columns and labels:
[1] = system: MitoTox Reporter cells (MDA-MB-231 expressing Laconic); assay: Pilot screening of 13 compounds with MitoTox Reporter cells, multiplate reader; type: cell-based; settings: for ΔR% variation / lactate accumulation over all concentrations tested: 1, 5, and 10 μM; for ΔR% (lactate accumulation): average of 4 replicate wells, Fig 9 legend 30 minutes, 37°C; for Concentration at which toxicity / mitochondrial effects were detected in the pilot screening: tested at 1, 5 and 10 μM
Procedure: (§1) MitoTox reporter cell line was cultured in Leibowitz media (Gibco) supplemented with 10% of fetal bovine serum (FBS) at 37°C at atmospheric CO2 levels in a 100 mm petri dish. Once cells reached 100% confluency, they were trypsinized using 5% trypsin (Gibco) and washed in PBS. Viability was determine using trypan blue staining and 10,000 cells were seeded into each well of a 96 well plate. Experiments in 96 well format were performed once cells reached 100% confluency after 6 days, during the incubation media was not replaced. All the plates with signal-to-noise ration below 1.3 for monomeric Teal Fluorescent Protein (mTFP) and Venus channels were discarded. Background signal was determined with KRH buffer without cells. Experiments consisted in washing out the culture media using KRH HEPES buffer containing (mM) 136 NaCl, 3 KCl, 1.25 CaCl2, 1.25 MgCl2, 10 HEPES/Tris and pH 7.2 at 37°C with 300 mOsm. Then 200 μl of KRH HEPES buffer without any carbon sources was added to each well and the baseline was measured (RMIN), then 100 μl of buffer was replaced with mitochondrial toxicant/controls and signal was measured to obtain a stimulated response (RMAX). In experiments were pCMBS was used to block lactate exit, the inhibitor was added simultaneously with the mitochondrial toxicants. Data was collected in triplicated after 5, 10, 30, and 60 minutes of incubation. All the experiments in 96 well plates were performed in an EnVision® multiplate reader (PerkinElmer). Each well was excited at 430 nm and the intensity of mTFP and Venus fluorescence emission were recorded at 485 nm and 528 nm, using a set of filters.
(§2) Where R(mTFP/Venus) min corresponded to the minimal change of mTFP/Venus ratio during the single-cell experiments. Results in 96 well plates experiments were expressed by the ΔR%. This parameter was obtained from the difference between the RMAX and RMIN from the same well (before-after experiment) as follow: ΔR%=(R(mTFP/Venus)max−R(mTFP/Venus)min/R(mTFP/Venus)min)x100
Multiple comparisons versus control groups (Holm-Sidak method), Overall significance level P < 0,05.
The capability of the assay to identify previously described toxic drugs was explored through a pilot screening assay. We selected 13 compounds from a variety of therapeutic classes to perform a pilot screening assay using MitoTox Reporter cells and a standard multiplate reader. […] To perform the assays, we prepared master stocks for each compound in 0.2% DMSO. Assays were performed with compounds at final concentrations of 1, 5, and 10 μM and the response of MitoTox Reporter cells were measured at 5, 10, 30, and 60 minutes. […] As a negative control we selected a compound with no reported side-effects.

[2] = system: mitochondrial membrane potential (MMP); settings: cited from earlier work
HepG2 cells [3] = system: HepG2 cells; set-up: method as in PMID 22689143; settings: cited from earlier work
[4] = system: reactive oxygen species (ROS); set-up: method as in Li et al., 2014 [50]; settings: treatment time 6 hours; ref Li et al., 2014 [50]; cited from earlier work
[5] = system: MDA-MB-231 cells stably expressing the FRET lactate indicator Laconic (MitoTox Reporter); assay: MitoToxy assay: toxicity-induced lactate accumulation in MitoTox Reporter cells, 96-well plate reader, with 50 μM pCMBS; type: cell-based
Procedure: as §1, §2

[6] = system: clonal MDA-MB-231 cells expressing Laconic; assay: Single-cell lactate imaging of MitoTox Reporter cells; type: cell-based; settings: 32 μM rotenone, 16 μM antimycin, 80 μM oligomycin, 10 μM myxothiazol
From the text: To generate a cell system with a high signal-to-noise ratio suitable for standard multiplate readers, we developed a clonal cell line with high levels and homogeneous Laconic expression. To do so, we produced a lentivirus particle to infect and transduce Laconic in MDA-MB-231 cells. From pooled cells with diverse levels of Laconic expression we selected high expression clones through FACS. […] We termed this cell line “MitoTox Reporter”. Exposure of these cells to classical mitochondrial poisons produced a robust increase in the fluorescent signal, indicating acute toxicity-induced lactate accumulation. […] With this evidence in hand, cells were tested in a multi-well plate reader.
Fig 3 Characterization of “MitoTox reporter” cell line. A) Confocal images from FACS selected clonal MDA-MB-231 cells expressing Laconic. Size bars for 20x and 60x represent 100 μm and 10 μm, respectively. Cytosolic lactate accumulation induced by treatment with: B) 32 μM rotenone, C) 16 μM of antimycin, D) 80 μM of oligomycin, and 10 μM myxothiazol. Each trace is the average of ten cells from one representative experiment.

glutathione (GSH) = system: glutathione (GSH); set-up: method as in Li et al., 2014 [50]; settings: treatment time 6 hours; ref Li et al., 2014 [50]; cited from earlier work
cell viability = system: cell viability; set-up: method as in Li et al., 2014 [50]; settings: treatment time 6 hours; ref Li et al., 2014 [50]; cited from earlier work
HepG2 cells [7] = system: HepG2 cells; set-up: method as in Marroquin et al., 2007 [35]; settings: treatment time 24 hours; approximated IC50 directly from plotted data in the original paper; ref Marroquin et al., 2007 [35]; cited from earlier work
oxygen consumption = system: oxygen consumption; set-up: method as in Hynes et al., 2013 [72]; settings: treatment time 0.13 hours; ref Hynes et al., 2013 [72]; cited from earlier work
[8] = system: primary culture of astrocytes from the mouse cortex expressing Laconic; assay: Single-cell lactate imaging (Laconic) in primary culture of cortical astrocytes; type: cell-based; settings: 32 μM rotenone, 16 μM antimycin, 5 mM azide, 80 μM oligomycin; buffer without carbon sources
Procedure: Animals used for primary cultures were mixed F1 male mice (C57BL/6J × CBA/J), kept in an animal room under SPF conditions at a room temperature of 20 ± 2°C, in a 12/12-h light/dark cycle and with free access to water and food. Mixed cortical cultures of neuronal and glia cells (1 –to 3-day-old neonates) was cultured in Neurobasal medium (Gibco) supplemented with 5 mM glucose and B27. Cells were seeded on petri dishes and superfused with KRH HEPES pH 7.4. The lactate imaging experiments with single-cell resolution were performed using cultured astrocytes at 11–14 days post-dissection. Real time experiments were performed with KRH HEPES bathing solution containing (in mM) 136 NaCl, 3 KCl, 1.25 CaCl2, 1.25 MgCl2, 10 HEPES/Tris and pH 7.2 at 36°C with 300 mOsm, without carbon sources for mitochondrial toxicant experiments and 2 mM glucose and 1 mM lactate for Warburg index determination. Experiments were performed in upright Olympus FV1000 confocal microscope equipped with a 20X water-immersion objective (numerical aperture, 1.0) and a 440 nm solid-state laser.
To plot the data, we used a ratio between mTFP and Venus channels. This ratio is proportional to lactate levels, since its binding to the sensor produced a decrease in FRET efficiency. This ratio was expressed in two formulas described below: NormalizedΔR=R(mTFP/Venus)/R(mTFP/Venus)min
With the aim of testing if this observation occurs in general and if azide induced-lactate accumulation can be reproduced using another mitochondrial toxicant with a different molecular target, we performed single-cell experiments exposing primary culture of astrocytes from the mouse cortex expressing Laconic (Fig 1A) to different mitochondria inhibitors that block the ETC at different levels (Fig 1C). To take advantage of the maximal dynamic range of the lactate FRET sensor the baseline measurements were performed using buffer without carbon sources to force start the experiments with lactate levels below 100 μM.
Each data point is from an average of ten cells from three independent experiments.

HepG2 cells [9] = system: HepG2 cells; set-up: method as in Nadanaciva et al., 2012 [55]; settings: treatment time 0.03 hours; ref Nadanaciva et al., 2012 [55]; cited from earlier work
[10] = system: extracellular acidification; set-up: method as in Hynes et al., 2013 [72]; settings: treatment time 0.13 hours; ref Hynes et al., 2013 [72]; cited from earlier work
HepG2 cells [11] = system: HepG2 cells; set-up: method as in Nadanaciva et al., 2012 [55]; settings: treatment time 0.03 hours; ref Nadanaciva et al., 2012 [55]; cited from earlier work; remark: listed apart in the source
[12] = treatment time 6 hours, ref Li et al., 2014 [50], read-out: IC50, MMP

## CC(=O)Oc1ccccc1C(=O)O [aspirin, acetylsalicylic acid]
[1]
  ΔR% variation / lactate accumulation over all concentrations tested: None of these molecules produced an important ΔR% variation; also recorded: did not induce intra-cellular lactate accumulation

## CC[C@@]1(O)C(=O)OCc2c1cc1n(c2=O)Cc2cc3ccccc3nc2-1 [camptothecin]
[2]; [12]
  IC50: 206 µM
[1]; 1 μM
  ΔR% (lactate accumulation): no change in ΔR% was detected
[1]; 5 μM
  ΔR% (lactate accumulation): potent effect and 13.52 ± 3.6%
[1]; 10 μM
  ΔR% (lactate accumulation): 49.18 ± 7.4%
[1]; 10 μM, inferred from the reported dynamic range and sensitivity of Laconic
  Cytosolic lactate accumulation (concentration): over 10 mM
[1]
  Concentration at which toxicity / mitochondrial effects were detected in the pilot screening: 5 µM

## CC1(COc2ccc(CC3SC(=O)NC3=O)cc2)CCCCC1 (stereo not shown) [ciglitazone]
[2]; [12]
  IC50: 136 µM
[1]; 10 μM
  ΔR% (lactate accumulation): over 14%
[1]
  Concentration at which toxicity / mitochondrial effects were detected in the pilot screening: 5 µM
HepG2 cells [3]; Seahorse technology, read-out: Concentration required to change the OCR and ECAR by 50%
  EC50: > 100 µM

## COc1cc([C@@H]2c3cc4c(cc3[C@@H](O[C@@H]3O[C@@H]5CO[C@@H](C)O[C@H]5[C@H](O)[C@H]3O)[C@H]3COC(=O)[C@H]23)OCO4)cc(OC)c1O [etoposide]
[1]
  ΔR% variation / lactate accumulation over all concentrations tested: None of these molecules produced an important ΔR% variation; also recorded: did not induce intra-cellular lactate accumulation

## CC(C)C(=O)Nc1ccc([N+](=O)[O-])c(C(F)(F)F)c1 [flutamide]
[1]; 10 μM
  ΔR% (lactate accumulation): 8.71 ± 2.06%
[1]
  Concentration at which toxicity / mitochondrial effects were detected in the pilot screening: 10 µM

## CN(C)C(=N)N=C(N)N [metformin]
[1]
  ΔR% variation / lactate accumulation over all concentrations tested: None of these molecules produced an important ΔR% variation; also recorded: did not induce intra-cellular lactate accumulation

## CO/C(=C/C(N)=O)[C@H](C)[C@H](/C=C/c1csc(-c2csc([C@@H](C)/C=C/C=C/C(C)C)n2)n1)OC [myxothiazol]
[4]
  IC50: 3.3 µM
[5]; dose-response, treatment time 0.5 hours (Fig 8 legend: 10 minutes), 37°C, read-out: IC50 (toxicity-induced lactate accumulation, MitoToxy)
  IC50: 1.2 µM
[2]; [12]
  IC50: 1.2 µM
[6]
  Intracellular lactate levels in MitoTox Reporter cells (single-cell): acute, fast, and robust increase of intracellular lactate levels
Glutathione (GSH)
  IC50: > 1000 µM
Cell viability
  IC50: 183 µM

## CC1(C)NC(=O)N(c2ccc([N+](=O)[O-])c(C(F)(F)F)c2)C1=O [nilutamide]
[1]
  ΔR% variation / lactate accumulation over all concentrations tested: did not produce ΔR% changes at all the concentrations tested
[1]; listed as nilutamine
  ΔR% variation / lactate accumulation over all concentrations tested: did not produce any effect

## CC[C@H]1/C=C/C=C/C[C@@H](C)[C@H](O)[C@@](C)(O)C(=O)[C@@H](C)[C@H](O)[C@@H](C)C(=O)[C@@H](C)[C@H](O)[C@@H](C)/C=C/C(=O)O[C@@H]2[C@H](C)[C@H](CC1)O[C@]1(CC[C@H](C)[C@H](C[C@@H](C)O)O1)[C@H]2C [oligomycin]
[4]
  IC50: > 1000 µM
[5]; Homo sapiens, MDA-MB-231, dose-response, treatment time 0.5 hours (Fig 8 legend: 10 minutes), 37°C, read-out: IC50 (toxicity-induced lactate accumulation, MitoToxy)
  IC50: 0.038 µM
[2]; [12]
  IC50: 15.6 µM
HepG2 cells [7]
  IC50: 0.005 µM
Oxygen consumption
  IC50: 0.038 µM
[6]
  Intracellular lactate levels in MitoTox Reporter cells (single-cell): acute, fast, and robust increase of intracellular lactate levels
[8]
  Cytosolic lactate accumulation in astrocytes: induced an acute cytosolic lactate accumulation
Glutathione (GSH)
  IC50: 161 µM
HepG2 cells [9]
  IC50: 0.92 µM
Cell viability
  IC50: 182 µM
[10]
  IC50: 0.077 µM
HepG2 cells [11]
  IC50: 1.1 µM

## COc1cc2nc(N3CCN(C(=O)c4ccco4)CC3)nc(N)c2cc1OC [prazosin]
[2]; [12]
  IC50: 6.3 µM
[1]
  ΔR% variation / lactate accumulation over all concentrations tested: None of these molecules produced an important ΔR% variation

## CN(CCOc1ccc(CC2SC(=O)NC2=O)cc1)c1ccccn1 (stereo not shown) [rosiglitazone]
[2]; [12]
  IC50: > 1000 µM
[1]; 10 μM
  ΔR% (lactate accumulation): over 14%
[1]
  Concentration at which toxicity / mitochondrial effects were detected in the pilot screening: 5 µM
HepG2 cells [3]; between 0.13 and 100 μM
  Effect on OCR and ECAR: no effects were detected

## C=C(C)[C@H]1Cc2c(ccc3c2O[C@@H]2COc4cc(OC)c(OC)cc4[C@@H]2C3=O)O1 [rotenone]
[4]
  IC50: 10.5 µM
[5]; Homo sapiens, MDA-MB-231, read-out: IC50 (toxicity-induced lactate accumulation)
  IC50: 0.0027 ± 0.00141 µM
[5]; Homo sapiens, MDA-MB-231, read-out: IC50 (toxicity-induced lactate accumulation, MitoToxy)
  IC50: 0.0025 µM
[2]; [12]
  IC50: 20.3 µM
HepG2 cells [7]
  IC50: 0.05 µM
Oxygen consumption
  IC50: 0.02 µM
[6]
  Intracellular lactate levels in MitoTox Reporter cells (single-cell): acute, fast, and robust increase of intracellular lactate levels
[8]
  Cytosolic lactate accumulation in astrocytes: induced an acute cytosolic lactate accumulation
Glutathione (GSH)
  IC50: 518 µM
HepG2 cells [9]
  IC50: 0.263 µM
Cell viability
  IC50: > 1000 µM
[10]
  IC50: 0.002 µM
HepG2 cells [11]
  IC50: 0.371 µM

## CCC(C)(C)C(=O)O[C@H]1C[C@@H](C)C=C2C=C[C@H](C)[C@H](CC[C@@H]3C[C@@H](O)CC(=O)O3)[C@H]21 [simvastatin]
[2]; [12]
  IC50: 63.2 µM
[1]
  ΔR% variation / lactate accumulation over all concentrations tested: None of these molecules produced an important ΔR% variation

## CC(C)(C)c1ccc(C(O)CCCN2CCC(C(O)(c3ccccc3)c3ccccc3)CC2)cc1 (stereo not shown) [terfenadine]
[2]; unit inferred, read-out: IC50, MMP measurements
  IC50: 4.4 µM
[1]; 1 μM
  ΔR% (lactate accumulation): without any measurable effects
[1]; 5 μM
  ΔR% (lactate accumulation): without any measurable effects
[1]; 10 μM
  ΔR% (lactate accumulation): 15.64 ± 1.32%
[1]
  Concentration at which toxicity / mitochondrial effects were detected in the pilot screening: 10 µM
